Test results: article PMC11858513, “Antibiofilm Activities of Tritrpticin Analogs Against Pathogenic Pseudomonas aeruginosa PA01 Strains” (Molecules, 2025)
Converted amounts (≈) assume the structure as drawn. Read-outs that look alike come from different tables or passages of the source. Non-standard residues stand in square brackets, D forms with d. Residues, ends and D or L forms follow the SMILES beside them. Orn = NCCC[C@H](N)C(=O)O; Dab = NCC[C@H](N)C(=O)O

Tests used:
[1] = tested on: P. aeruginosa PAO1 GFP; test: MIC against planktonic cells, absorbance at 600 nm; type: cell-based, Pseudomonas aeruginosa; settings: absorbance 600 nm
Procedure: (§1) Figure 1 The MIC (A), MBIC (B) and MBEC (C) values for the tritrpticin analog peptides were assessed against Pa PAO1 GFP. The MIC values were determined by measuring the absorbance of bacterial cells at 600 nm. The MBIC and MBEC values were determined by recording the fluorescence at 480 nm and 530 nm from the biofilms of GFP-expressing PAO1. Three biological replicates were run for each test sample, and the mean was calculated for the recorded absorption or fluorescence values. In the graphs, the error bars represent the standard deviation (±SD).
(§2) Figure 2 The MIC (A), MBIC (B) and MBEC (C) values for the tritrpticin-Lys derivative peptides were assessed against Pa PAO1 GFP. The MIC values were determined by measuring the absorbance of bacterial cells at 600 nm. The MBIC and MBEC values were determined by recording the fluorescence at 480 nm and 530 nm from the biofilms of GFP-expressing PAO1. Three replicates were run for each sample, the values were averaged and the error bars represent the standard deviation (±SD).
(§3) The methods to determine the MIC, MBIC and MBEC have been described in detail in our previous publication. The green fluorescent protein (GFP)-producing P. aeruginosa and S. aureus strains that were used in this work were also described in the earlier publication. Fluorescence detection was used as the main method to estimate the number of cells entrapped in the biofilm matrix. The methodology used for evaluation of the antibiofilm properties against an original Pseudomonas PA01 strain by crystal violet dye staining and the use of the Calgary biofilm device has been described elsewhere. The regular PA01 strain was provided by Dr. J. Harrison, Calgary. All measurements were carried out on an Eppendorf AF2200 plate reader. Every 96-well plate included controls for bacterial cell growth without peptide treatment and media alone. All measurements were carried out in triplicate, and the values in the figures represent the average and the error bars are standard deviation.

[2] = tested on: P. aeruginosa PAO1 GFP; test: MBIC, prevention of biofilm formation, GFP fluorescence method; type: cell-based, Pseudomonas aeruginosa
Procedure: as §1, §2, §3

[3] = tested on: P. aeruginosa PAO1 GFP; test: MBEC, biofilm eradication, GFP fluorescence method; type: cell-based, Pseudomonas aeruginosa
Procedure: as §1, §2, §3

[4] = tested on: S. aureus GFP; test: MIC against planktonic cells, absorbance at 600 nm; type: cell-based, Staphylococcus aureus; settings: Table 4; Sa GFP, 10% TSB and 0.1% glucose; absorbance 600 nm; mean of three biological replicates
Procedure: (§4) Figure 3 The MIC (A), MBIC (B) and MBEC (C) values for the tritrpticin analog peptides were assessed against Sa GFP. The MIC values were determined by measuring the absorbance of bacterial cells at 600 nm. The MBIC and MBEC values were determined by recording the fluorescence at 480 nm and 530 nm from the biofilms of GFP-expressing Sa. Three biological replicates were run for each test sample, and the mean was calculated for the recorded absorption or fluorescence values. In the graphs, the error bars represent the standard deviation (±SD).
as §3

[5] = tested on: S. aureus GFP; test: MBIC, GFP fluorescence method; type: cell-based, Staphylococcus aureus; settings: Table 4, Sa GFP, 10% TSB and 0.1% glucose, mean of three biological replicates
Procedure: as §4, §3

[6] = tested on: S. aureus GFP; test: MBEC, GFP fluorescence method; type: cell-based, Staphylococcus aureus; settings: Table 4, Sa GFP, 10% TSB and 0.1% glucose, mean of three biological replicates
Procedure: as §4, §3

[7] = tested on: S. aureus GFP; type: cell-based, Staphylococcus aureus; settings: Table 4; Sa GFP; lowest concentration of peptide with no bacterial growth seen on the spot agar plate
Source text: as §3

[8] = tested on: P. aeruginosa PAO1; type: cell-based
Procedure: (§5) We note the close agreement with the MBIC and MBEC values determined by the fluorescence and CV methods, similar to what we found in our previous work for an S. aureus MRSA strain [23]. We also re-evaluated the MBEC values that are measured using the Calgary biofilm device (CBD), where biofilms form on pegs, rather than at the bottom of the 96-well plates. […] In particular, we find that the single Pro9Ala Tritrp-P9A-substituted version has better MIC, MBIC and MBEC activities than the parent peptide as well as the Tritrp-P59A analog with both prolines substituted to Ala.
(§6) Figure 4 The MIC (A), MBIC (B) and MBRC (C) values for the peptides were assessed against P. aeruginosa PAO1 in the presence of 1× BM2. The inhibition of planktonic cells, the inhibition of biofilm cells and the reduction in biofilm cells were determined for the peptides by recording of the planktonic cells at 600 nm and quantification of biofilms formed by Pa PAO1 using crystal violet at 595 nm, respectively. Three biological replicates were run for each test sample, and the mean was calculated for the recorded absorption values. Data points with error bars indicate the standard deviation (±SD).
(§7) Figure 6 The MIC (A), MBIC (B) and MBEC (C) values for the tritrpticin-Lys derivatives against P. aeruginosa PAO1 were assessed by the crystal violet (CV) assay for the measurement of inhibition of biofilm formation and eradication of biofilm cells, respectively. The biofilm cells were rinsed, stained with 0.1% crystal violet for 15 min and then rinsed again. The CV was released from biofilm cells by the addition of 95% ethanol and quantified by reading on a spectrometer at 595 nm. Three replicates were run for each sample, the values were averaged and the error bars represent the standard deviation (±SD).
as §3

[9] = tested on: P. aeruginosa PAO1; type: cell-based, Pseudomonas aeruginosa; settings: Table 5; PAO1, 1x BM2; biofilms on pegs, cells plated and counted; three biological replicates
Procedure: as §5
Figure 5 The MBEC values for the peptides were assessed against P. aeruginosa PAO1 in the presence of 1× BM2 medium. The eradication of biofilm cells was determined for the peptides using the counting of biofilm cells formed by Pa PAO1. Three biological replicates were run for each test sample, and the mean was calculated for counted cell values. Data points with error bars indicate the standard deviation (±SD).
as §3

[10] = tested on: P. aeruginosa PAO1; type: cell-based, Pseudomonas aeruginosa; settings: Table 6, Tritrp-Lys derivatives; PAO1, BM2; absorbance 600 nm; three replicates; unit not given
Procedure: as §6, §7, §3

[11] = Table 2, BM2 medium, mean of three biological replicates
[12] = Table 5, PAO1, 1x BM2, crystal violet at 595 nm, mean of three biological replicates
[13] = Table 5, minimum biofilm reduction concentration, PAO1, 1x BM2, crystal violet at 595 nm, mean of three biological replicates
[14] = Table 3, Tritrp-Lys derivatives, BM2 medium, three replicates
[15] = Table 6, Tritrp-Lys derivatives, PAO1, BM2, 0.1% crystal violet 15 min, released with 95% ethanol, 595 nm, three replicates, unit not given

Row | SMILES | MIC at 600 nm LD50 [1, 11] [µmol/L] | MIC at 600 nm LD90 [1, 11] [µmol/L] | MBIC at 488 and 530 nm LD50 [2, 11] [µmol/L] | MBIC at 488 and 530 nm LD90 [2, 11] [µmol/L] | MBEC at 488 and 530 nm LD50 [3, 11] [µmol/L] | MBEC at 488 and 530 nm LD90 [3, 11] [µmol/L] | MIC at 600 nm LD50 [4] [µmol/L] | MIC at 600 nm LD90 [4] [µmol/L] | MBIC at 488 and 530 nm LD50 [5] [µmol/L] | MBIC at 488 and 530 nm LD90 [5] [µmol/L] | MBEC at 488 and 530 nm LD50 [6] [µmol/L] | MBEC at 488 and 530 nm LD90 [6] [µmol/L] | MBC Agar Plate [7] [µmol/L] | MIC at 600 nm LD50 [1, 14] [µmol/L] | MIC at 600 nm LD90 [1, 14] [µmol/L] | MBIC at 488 and 530 nm LD50 [2, 14] [µmol/L] | MBIC at 488 and 530 nm LD90 [2, 14] [µmol/L] | MBEC at 488 and 530 nm LD50 [3, 14] [µmol/L] | MBEC at 488 and 530 nm LD90 [3, 14] [µmol/L] | MIC at 600 nm LD50 [10] | also measured
1 | CC[C@H](C)[C@H](N)C(=O)N[C@@H](CC(C)C)C(=O)N1CCC[C@H]1C(=O)N[C@@H](Cc1c[nH]c2ccccc12)C(=O)N[C@@H](CCCCN)C(=O)N[C@@H](Cc1c[nH]c2ccccc12)C(=O)N1CCC[C@H]1C(=O)N[C@@H](Cc1c[nH]c2ccccc12)C(=O)N[C@@H](Cc1c[nH]c2ccccc12)C(=O)N1CCC[C@H]1C(=O)N[C@@H](Cc1c[nH]c2ccccc12)C(=O)N[C@@H](CCCNC(=N)N)C(=O)N[C@@H](CCCNC(=N)N)C(N)=O [Indolicidin, reference compound] | 8 (≈ 15.3 µg/mL) | 32 (≈ 61 µg/mL) | 8 | 32 | 32 | >128 | 4 (≈ 7.63 µg/mL) | 8 (≈ 15.3 µg/mL) | 4 | 8 | 2 | 8 | 8 (≈ 15.3 µg/mL) | – | – | – | – | – | – | – | MBIC (CV at 595 nm) LD50 [8, 12]: 32 µmol/L; MBIC (CV at 595 nm) LD90 [8, 12]: 32 µmol/L; MBRC (CV at 595 nm) LD50 [8, 13]: 64 µmol/L; MBRC (CV at 595 nm) LD90 [8, 13]: 64 µmol/L; MBEC from Calgary Biofilm Device (CBD) LD50 [9]: 128 µmol/L; MBEC from Calgary Biofilm Device (CBD) LD90 [9]: 128 µmol/L
2 | N=C(N)NCCC[C@H](NC(=O)[C@H](CCCNC(=N)N)NC(=O)[C@@H](N)CCCNC(=N)N)C(=O)N[C@@H](Cc1c[nH]c2ccccc12)C(=O)N[C@@H](Cc1c[nH]c2ccccc12)C(=O)N[C@@H](Cc1c[nH]c2ccccc12)C(N)=O [RRRWWW-NH2] (H-RRRWWW-NH2) | 32 (≈ 33.4 µg/mL) | 128 (≈ 134 µg/mL) | 16 | 128 | 64 | >128 | 1 (≈ 1.04 µg/mL) | 1 (≈ 1.04 µg/mL) | 1 | 1 | 0.5 | 4 | 4 (≈ 4.18 µg/mL) | – | – | – | – | – | – | – | –
3 | N=C(N)NCCC[C@H](NC(=O)[C@H](Cc1c[nH]c2ccccc12)NC(=O)[C@H](Cc1c[nH]c2ccccc12)NC(=O)[C@H](Cc1c[nH]c2ccccc12)NC(=O)[C@H](CCCNC(=N)N)NC(=O)[C@@H](N)CCCNC(=N)N)C(N)=O [RRWWWR-NH2] (H-RRWWWR-NH2) | 64 (≈ 66.8 µg/mL) | 128 (≈ 134 µg/mL) | 16 | 128 | 128 | >128 | 1 (≈ 1.04 µg/mL) | 1 (≈ 1.04 µg/mL) | 1 | 1 | 1 | 4 | 4 (≈ 4.18 µg/mL) | – | – | – | – | – | – | – | –
4 | CC(C)C[C@H](NC(=O)[C@H](Cc1ccccc1)NC(=O)[C@@H]1CCCN1C(=O)[C@H](Cc1c[nH]c2ccccc12)NC(=O)[C@H](Cc1c[nH]c2ccccc12)NC(=O)[C@H](Cc1c[nH]c2ccccc12)NC(=O)[C@@H]1CCCN1C(=O)[C@H](Cc1ccccc1)NC(=O)[C@H](CCN)NC(=O)[C@H](CCN)NC(=O)[C@@H](N)C(C)C)C(=O)N[C@@H](CCN)C(=O)N[C@@H](CCN)C(N)=O [Tritrp-Dab] (H-V[Dab][Dab]FPWWWPFL[Dab][Dab]-NH2; N-terminus assumed) | – | – | – | – | – | – | – | – | – | – | – | – | – | 8 (≈ 13.4 µg/mL) | 16 (≈ 26.8 µg/mL) | 8 | 16 | 16 | 64 | 16 | MIC at 600 nm LD90 [10]: 16; MBEC (CV at 595 nm) LD90 [8, 15]: 64; MBIC (CV at 595 nm) LD90 [8, 15]: 16
5 | CC(C)C[C@H](NC(=O)[C@H](Cc1ccccc1)NC(=O)[C@@H]1CCCN1C(=O)[C@H](Cc1c[nH]c2ccccc12)NC(=O)[C@H](Cc1c[nH]c2ccccc12)NC(=O)[C@H](Cc1c[nH]c2ccccc12)NC(=O)[C@@H]1CCCN1C(=O)[C@H](Cc1ccccc1)NC(=O)[C@H](CCCN)NC(=O)[C@H](CCCN)NC(=O)[C@@H](N)C(C)C)C(=O)N[C@@H](CCCN)C(=O)N[C@@H](CCCN)C(N)=O [Tritrp-Orn] (H-V[Orn][Orn]FPWWWPFL[Orn][Orn]-NH2; N-terminus assumed) | – | – | – | – | – | – | – | – | – | – | – | – | – | 16 (≈ 27.7 µg/mL) | 16 (≈ 27.7 µg/mL) | 16 | 16 | 64 | 128 | 16 | MIC at 600 nm LD90 [10]: 16; MBEC (CV at 595 nm) LD90 [8, 15]: 128; MBIC (CV at 595 nm) LD90 [8, 15]: 32
